Measured values as given in US12522582B2 (Gilead Sciences, Inc., priority 2022, dated 2026).
Read-outs that look alike come from different tables or passages of the source.

Test system: HSV-2 virus (MS strain)
Test: HSV-2 Cellomics Assay (immunofluorescence of HSV protein gD in infected ARPE-19 cells)
Conditions: Human alphaherpesvirus 2, ARPE-19, 16 h
[1] = read-out: EC50-HSV2-10% Human Serum

Method: Compounds were tested for their ability to inhibit HSV-2 replication by monitoring the expression of the HSV protein gD using a high-throughput immunofluorescence-based assay. 10-dose, 3-fold serial dilutions of compounds were prepared at starting concentrations of 0.2 or 2 mM in 100% DMSO. […] The final starting concentration in the assay was either 1 or 10 μM. DMSO (no compound) and pritelivir were included on each microplate as negative and positive controls, respectively.
Prior to confluence, cells were transferred to a centrifuge tube and spun for 5 minutes at 1000 rpm. Cells were resuspended in assay medium (DMEM/F-12 Glutamax, 2% FBS, 1% Penicillin-Streptomycin) and counted. Cell density was adjusted to 150,000 cells/ml and infected with HSV-2 virus (MS strain, ATCC cat #VR-540) at a MOI of 0.06 in a 50 ml conical tube for 1 hour under constant rocking. Cells were then spun for 5 minutes at 1000 rpm and the media replaced with assay medium containing either 2% FBS or 10% human serum (EMD Millipore cat #S1-100 ML). 50 μl of the infection suspension were added into microplate wells that were pre-spotted with compounds (7,500 cells per well). Plates were incubated for 16 hours at 37° C.
After a 30-minute incubation at room temperature, plates were washed 4 times with 100 μl/well of PBS using a Biotek plate washer. […] Plates were washed 4 times again and 50 μl of DPBS were added to all wells prior to sealing the plates with a black adhesive seal. Fluorescence was measured on a Cellomics plate reader.
Data analysis was carried out using the Thermo Scientific HCS Studio software. Briefly, cells were identified using the DAPI nuclear stain and thresholds were set to filter cells out based on shape and size. A second threshold based on green fluorescence intensity (detection of HSV-2 gD) was set to identify HSV-2 infected cells. Data was reported as the average fluorescence intensity of HSV-2 infected cells.

CS(=N)(=O)c1cc2c(cc1F)CCN2C(=O)[C@@H]1Cc2ccc(-c3ccccn3)cc2C1 (mixture of isomers) [Example 39, (5-fluoro-1-((R)-5-(pyridin-2-yl)-2,3-dihydro-1H-indene-2-carbonyl)indolin-6-yl)(imino)(methyl)-λ^6-sulfanone]
EC50 [1]: 188 nM
EC50 (read-out: EC50-HSV2-FBS): 45 nM

CC1CN(C(=O)[C@H]2Cc3cc(-c4ccccn4)ccc3[C@@H]2C)c2cc(S(N)(=O)=O)c(F)cc21 (mixture of isomers) [Example 103, 5-fluoro-3-methyl-1-((1R,2S)-1-methyl-5-(pyridin-2-yl)-2,3-dihydro-1H-indene-2-carbonyl) indoline-6-sulfonamide]
EC50 [1]: 221 nM
EC50 (read-out: EC50-HSV2-FBS): 36 nM

CCC1Cc2cc(F)c(S(=N)(=O)O)cc2N1C(=O)[C@@H]1Cc2ccc(-c3ccccn3)cc2C1 (mixture of isomers) [Example 112]
EC50 [1]: 579 nM
EC50 (read-out: EC50-HSV2-FBS): 81 nM

C[C@@H]1Cc2ccc(S(N)(=O)=O)cc2N1C(=O)[C@H]1Cc2ccc(-c3ccccn3)cc2C1 (single isomer, unassigned) [Example 14]
EC50 (read-out: EC50-HSV2-FBS): 2480 nM

C[C@H]1Cc2ccc(S(N)(=O)=O)cc2N1C(=O)[C@H]1Cc2ccc(-c3ccccn3)cc2C1 (single isomer, unassigned) [Example 17]
EC50 (read-out: EC50-HSV2-FBS): 551 nM

C[S@@](=N)(=O)c1ccc2c(c1)N(C(=O)[C@@H]1Cc3ccc(-c4ccccn4)cc3C1)CC2 (single isomer, unassigned) [Example 31]
EC50 [1]: 9380 nM
EC50 (read-out: EC50-HSV2-FBS): 849 nM

C[C@@H]1CN(C(=O)[C@H]2Cc3cc(-c4ccccn4)ccc3[C@@H]2C)c2cc(S(N)(=O)=O)c(F)cc21 (single isomer, unassigned) [Example 105]
EC50 [1]: 251 nM
EC50 (read-out: EC50-HSV2-FBS): 45 nM

Cc1c(S(N)(=O)=O)ccc2c1N(C(=O)C1Cc3ccc(-c4ccccn4)cc3C1)CC2 (stereo not drawn) [Example 1]
EC50 (read-out: EC50-HSV2-FBS): 721 nM

Cc1cc(S(N)(=O)=O)cc2c1CCN2C(=O)C1Cc2ccc(-c3ccccn3)cc2C1 (stereo not drawn) [Example 2]
EC50 [1]: 23600 nM
EC50 (read-out: EC50-HSV2-FBS): 65 nM

NS(=O)(=O)c1ccc2c(c1F)N(C(=O)C1Cc3ccc(-c4ccccn4)cc3C1)CC2 (stereo not drawn) [Example 4]
EC50 [1]: ≥ 25000 nM
EC50 (read-out: EC50-HSV2-FBS): 284 nM

NS(=O)(=O)c1cc(F)c2c(c1)N(C(=O)C1Cc3ccc(-c4ccccn4)cc3C1)CC2 (stereo not drawn) [Example 6]
EC50 [1]: ≥ 25000 nM
EC50 (read-out: EC50-HSV2-FBS): 72 nM

NS(=O)(=O)c1cc(Cl)c2c(c1)N(C(=O)C1Cc3ccc(-c4ccccn4)cc3C1)CC2 (stereo not drawn) [Example 7]
EC50 [1]: ≥ 25000 nM
EC50 (read-out: EC50-HSV2-FBS): 62 nM

NS(=O)(=O)c1ccc2c(c1)N(C(=O)C1Cc3cc(F)c(-c4ccccn4)cc3C1)CC2 (stereo not drawn) [Example 9]
EC50 [1]: 2600 nM
EC50 (read-out: EC50-HSV2-FBS): 105 nM

NS(=O)(=O)c1ccc2c(c1)N(C(=O)C1Cc3ccc(-c4ccccn4)c(F)c3C1)CC2 (stereo not drawn) [Example 10]
EC50 (read-out: EC50-HSV2-FBS): 537 nM

NS(=O)(=O)c1ccc2c(c1)N(C(=O)C1Cc3ccc(-c4ccccn4)c(Cl)c3C1)CC2 (stereo not drawn) [Example 11]
EC50 (read-out: EC50-HSV2-FBS): 7660 nM

NS(=O)(=O)c1ccc2c(c1)N(C(=O)C1Cc3cc(Cl)c(-c4ccccn4)cc3C1)CC2 (stereo not drawn) [Example 12]
EC50 (read-out: EC50-HSV2-FBS): 5040 nM

NS(=O)(=O)c1cc2c(cc1F)CCN2C(=O)C1Cc2cc(-c3ccccn3)cc(F)c2C1 (stereo not drawn) [Example 13]
EC50 [1]: ≥ 10000 nM
EC50 (read-out: EC50-HSV2-FBS): 250 nM

NS(=O)(=O)c1ccc2c(c1)N(C(=O)C1Cc3ccc(-c4cncc(F)n4)cc3C1)CC2 (stereo not drawn) [Example 18]
EC50 (read-out: EC50-HSV2-FBS): 180 nM

NS(=O)(=O)c1ccc2c(c1)N(C(=O)C1Cc3ccc(-c4nccs4)cc3C1)CC2 (stereo not drawn) [Example 20]
EC50 (read-out: EC50-HSV2-FBS): 91 nM

Cc1csc(-c2ccc3c(c2)CC(C(=O)N2CCc4ccc(S(N)(=O)=O)cc42)C3)n1 (stereo not drawn) [Example 22]
EC50 (read-out: EC50-HSV2-FBS): 48 nM

NS(=O)(=O)c1ccc2c(c1)N(C(=O)C1Cc3ccc(-c4ccsn4)cc3C1)CC2 (stereo not drawn) [Example 24]
EC50 [1]: ≥ 25000 nM
EC50 (read-out: EC50-HSV2-FBS): 19 nM

Cc1nc(-c2ccc3c(c2)CC(C(=O)N2CCc4ccc(S(N)(=O)=O)cc42)C3)cs1 (stereo not drawn) [Example 25]
EC50 [1]: ≥ 25000 nM
EC50 (read-out: EC50-HSV2-FBS): 32 nM

COc1nc(-c2ccc3c(c2)CC(C(=O)N2CCc4ccc(S(N)(=O)=O)cc42)C3)cs1 (stereo not drawn) [Example 26]
EC50 (read-out: EC50-HSV2-FBS): 131 nM

N#Cc1nc(-c2ccc3c(c2)CC(C(=O)N2CCc4ccc(S(N)(=O)=O)cc42)C3)cs1 (stereo not drawn) [Example 27]
EC50 (read-out: EC50-HSV2-FBS): 383 nM

CS(=N)(=O)c1ccc2c(c1)N(C(=O)C1Cc3ccc(-c4ccccn4)cc3C1)CC2 (stereo not drawn) [Example 29, imino(methyl)(1-(5-(pyridin-2-yl)-2,3-dihydro-1H-indene-2-carbonyl)indolin-6-yl)-λ^6-sulfanone]
EC50 [1]: 3240 nM
EC50 (read-out: EC50-HSV2-FBS): 193 nM

C[S@@](=N)(=O)c1cc2c(cc1F)CCN2C(=O)[C@@H]1Cc2ccc(-c3ccccn3)cc2C1 [Example 40, (R)-(5-fluoro-1-((R)-5-(pyridin-2-yl)-2,3-dihydro-1H-indene-2-carbonyl)indolin-6-yl)(imino)(methyl)-16-sulfanone]
EC50 [1]: 816 nM
EC50 (read-out: EC50-HSV2-FBS): 196 nM

C[C@@H]1Cc2cc(F)c(S(N)(=O)=O)cc2N1C(=O)[C@@H]1Cc2cc(-c3ccccn3)ccc2O1 [Example 43]
EC50 [1]: 9270 nM
EC50 (read-out: EC50-HSV2-FBS): 352 nM

NS(=O)(=O)c1ccc2c(c1)N(C(=O)[C@@H]1Cc3ccc(-c4cc(F)ccc4F)cc3C1)CC2 [Example 45, (R)-1-(5-(2,5-difluorophenyl)-2,3-dihydro-1H-indene-2-carbonyl)indoline-6-sulfonamide]
EC50 [1]: ≥ 10000 nM
EC50 (read-out: EC50-HSV2-FBS): 67 nM

C[C@@H]1c2cc(F)c(S(N)(=O)=O)cc2N(C(=O)[C@@H]2Cc3ccc(-c4ccccn4)cc3C2)[C@H]1C [Example 47, (2S,3R)-5-fluoro-2,3-dimethyl-1-((R)-5-(pyridin-2-yl)-2,3-dihydro-1H-indene-2-carbonyl)indoline-6-sulfonamide]
EC50 [1]: 3660 nM
EC50 (read-out: EC50-HSV2-FBS): 423 nM

C[C@H]1c2cc(F)c(S(N)(=O)=O)cc2N(C(=O)[C@@H]2Cc3ccc(-c4ccccn4)cc3C2)[C@H]1C [Example 49, (2S,3S)-5-fluoro-2,3-dimethyl-1-((R)-5-(pyridin-2-yl)-2,3-dihydro-1H-indene-2-carbonyl)indoline-6-sulfonamide]
EC50 [1]: 1040 nM
EC50 (read-out: EC50-HSV2-FBS): 162 nM

CS(=N)(=O)c1cc2c(cc1F)CCN2C(=O)[C@@H]1Cc2ccc(-c3cc(F)ccc3F)cc2C1 (stereo partly drawn) [Example 51, (1-((R)-5-(2,5-difluorophenyl)-2,3-dihydro-1H-indene-2-carbonyl)-5-fluoroindolin-6-yl)(imino)(methyl)-λ^6-sulfanone]
EC50 [1]: 239 nM
EC50 (read-out: EC50-HSV2-FBS): 53 nM

C[S@@](=N)(=O)c1cc2c(cc1F)CCN2C(=O)[C@@H]1Cc2ccc(-c3cc(F)ccc3F)cc2C1 [Example 52]
EC50 [1]: 2000 nM
EC50 (read-out: EC50-HSV2-FBS): 340 nM

C[C@H]1Cc2ccc(S(N)(=O)=O)cc2N1C(=O)C1Cc2cc(-c3ccccn3)ccc2O1 (stereo partly drawn) [Example 56]
EC50 [1]: 2220 nM
EC50 (read-out: EC50-HSV2-FBS): 255 nM

C[C@H]1Cc2cc(Cl)c(S(N)(=O)=O)cc2N1C(=O)[C@@H]1Cc2ccc(-c3ccccn3)cc2C1 [Example 59, (S)-5-chloro-2-methyl-1-((R)-5-(pyridin-2-yl)-2,3-dihydro-1H-indene-2-carbonyl)indoline-6-sulfonamide]
EC50 [1]: ≥ 10000 nM
EC50 (read-out: EC50-HSV2-FBS): 385 nM

NS(=O)(=O)c1ccc2c(c1)N(C(=O)C1Cc3ccc(-c4ccccc4)cc3C1)CC2 (stereo not drawn) [Example 69, 1-(5-phenyl-2,3-dihydro-1H-indene-2-carbonyl) indoline-6-sulfonamide]
EC50 [1]: ≥ 25000 nM
EC50 (read-out: EC50-HSV2-FBS): 119 nM

NS(=O)(=O)c1ccc2c(c1)N(C(=O)C1Cc3ccc(-c4ccccn4)cc3C1)CC2 (stereo not drawn) [Example 71, 1-(5-(pyridin-2-yl)-2,3-dihydro-1H-indene-2-carbonyl) indoline-6-sulfonamide]
EC50 [1]: ≥ 25000 nM
EC50 (read-out: EC50-HSV2-FBS): 30 nM

COc1cncc(-c2ccc3c(c2)CC(C(=O)N2CCc4ccc(S(N)(=O)=O)cc42)C3)n1 (stereo not drawn) [Example 72]
EC50 [1]: 12300 nM
EC50 (read-out: EC50-HSV2-FBS): 252 nM

COc1cccc(-c2ccc3c(c2)CC(C(=O)N2CCc4ccc(S(N)(=O)=O)cc42)C3)n1 (stereo not drawn) [Example 77]
EC50 [1]: 10500 nM
EC50 (read-out: EC50-HSV2-FBS): 121 nM

NS(=O)(=O)c1ccc2c(c1)N(C(=O)C1Cc3ccc(-n4cncn4)cc3C1)CC2 (stereo not drawn) [Example 79, 1-(5-(1H-1,2,4-triazol-1-yl)-2,3-dihydro-1H-indene-2-carbonyl)indoline-6-sulfonamide]
EC50 (read-out: EC50-HSV2-FBS): 2060 nM

NS(=O)(=O)c1ccc2c(c1)N(C(=O)[C@H]1Cc3ccc(-c4ccccn4)cc3C1)CC2 [Example 80, (S)-1-(5-(pyridin-2-yl)-2,3-dihydro-1H-indene-2-carbonyl)indoline-6-sulfonamide]
EC50 (read-out: EC50-HSV2-FBS): 409 nM

NS(=O)(=O)c1ccc2c(c1)N(C(=O)[C@H]1Cc3ccc(-c4ccccc4F)cc3C1)CC2 [Example 82, (S)-1-(5-(2-fluorophenyl)-2,3-dihydro-1H-indene-2-carbonyl)indoline-6-sulfonamide]
EC50 (read-out: EC50-HSV2-FBS): 8040 nM

NS(=O)(=O)c1ccc2c(c1)N(C(=O)[C@@H]1Cc3ccc(-c4ccccc4F)cc3C1)CC2 [Example 83, (R)-1-(5-(2-fluorophenyl)-2,3-dihydro-1H-indene-2-carbonyl)indoline-6-sulfonamide]
EC50 [1]: ≥ 25000 nM
EC50 (read-out: EC50-HSV2-FBS): 177 nM

CC1c2ccc(-c3ccccn3)cc2CC1C(=O)N1CCc2ccc(S(N)(=O)=O)cc21 (stereo not drawn) [Example 92]
EC50 [1]: 238 nM
EC50 (read-out: EC50-HSV2-FBS): 28 nM

C[C@@H]1c2ccc(-c3ccccn3)cc2C[C@H]1C(=O)N1CCc2ccc(S(N)(=O)=O)cc21 [Example 93, 1-((1S,2R)-1-methyl-5-(pyridin-2-yl)-2,3-dihydro-1H-indene-2-carbonyl)indoline-6-sulfonamide]
EC50 [1]: ≥ 25000 nM
EC50 (read-out: EC50-HSV2-FBS): 1850 nM

CC1c2cc(-c3ccccn3)ccc2CC1C(=O)N1CCc2ccc(S(N)(=O)=O)cc21 (stereo not drawn) [Example 95, 1-(1-methyl-6-(pyridin-2-yl)-2,3-dihydro-1H-indene-2-carbonyl) indoline-6-sulfonamide]
EC50 [1]: ≥ 25000 nM
EC50 (read-out: EC50-HSV2-FBS): 2850 nM

C[C@@H]1c2ccc(-c3ccccn3)cc2C[C@H]1C(=O)N1CCc2cc(F)c(S(N)(=O)=O)cc21 [Example 98, 5-fluoro-1-((1S,2R)-1-methyl-5-(pyridin-2-yl)-2,3-dihydro-1H-indene-2-carbonyl)indoline-6-sulfonamide]
EC50 [1]: 6650 nM
EC50 (read-out: EC50-HSV2-FBS): 1360 nM
